In ChEMBL document CHEMBL4396966, “Synthesis, biological evaluation and molecular docking of 4-Amino-2H-benzo[h]chromen-2-one (ABO) analogs containing the piperazine moiety” (Bioorg Med Chem, 2019):
Activity calls are given as the source filed them. No cut-off for these calls is given here.

Columns and labels:
[1] = target: T1, Androgen receptor (Homo sapiens) (UniProt P10275); details: at 10 µM
T1 sequence (whole entry): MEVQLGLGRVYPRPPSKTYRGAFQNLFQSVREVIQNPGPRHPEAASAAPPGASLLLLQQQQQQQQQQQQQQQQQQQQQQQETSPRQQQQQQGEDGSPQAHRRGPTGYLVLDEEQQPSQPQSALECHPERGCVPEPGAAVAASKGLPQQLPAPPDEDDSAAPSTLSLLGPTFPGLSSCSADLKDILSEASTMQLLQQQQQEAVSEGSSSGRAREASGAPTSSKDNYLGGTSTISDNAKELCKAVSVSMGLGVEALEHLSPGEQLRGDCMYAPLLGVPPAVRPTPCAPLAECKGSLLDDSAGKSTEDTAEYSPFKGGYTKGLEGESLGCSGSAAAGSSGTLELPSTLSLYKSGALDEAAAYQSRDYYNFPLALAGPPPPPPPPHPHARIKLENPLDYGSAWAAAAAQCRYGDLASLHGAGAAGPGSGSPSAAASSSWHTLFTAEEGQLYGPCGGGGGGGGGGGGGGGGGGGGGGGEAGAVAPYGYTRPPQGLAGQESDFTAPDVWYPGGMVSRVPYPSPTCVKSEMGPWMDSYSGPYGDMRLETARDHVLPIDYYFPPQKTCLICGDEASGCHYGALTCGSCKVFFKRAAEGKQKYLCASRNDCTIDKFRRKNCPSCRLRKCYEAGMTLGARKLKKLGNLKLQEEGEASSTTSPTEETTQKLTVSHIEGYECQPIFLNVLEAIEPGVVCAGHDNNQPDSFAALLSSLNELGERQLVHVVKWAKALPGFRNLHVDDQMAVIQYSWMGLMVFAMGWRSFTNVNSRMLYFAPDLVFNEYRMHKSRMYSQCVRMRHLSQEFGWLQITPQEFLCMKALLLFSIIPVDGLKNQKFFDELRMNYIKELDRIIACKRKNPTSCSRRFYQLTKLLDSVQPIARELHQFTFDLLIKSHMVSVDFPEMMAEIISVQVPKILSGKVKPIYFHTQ

PC-3 = assay: Antiproliferative activity against AR-deficient human PC3 cells assessed as reduction in cell viability after 24 hrs by CCK-8 assay; type: functional, cell-based; details: PC-3, 24 h
[2] = Antiproliferative activity against AR-rich human LNCaP-hr cells assessed as reduction in cell viability after 24 hrs by CCK-8 assay; type: functional
Androgen receptor = target: T2, Androgen receptor (Rattus norvegicus, UniProt P15207); assay: Displacement of fluormone-AL Green from His-tagged/GST-fused recombinant rat androgen receptor LBD expressed in insect cells measured after 4 hrs by fluorescence polarization assay
T2 sequence (P15207 whole entry): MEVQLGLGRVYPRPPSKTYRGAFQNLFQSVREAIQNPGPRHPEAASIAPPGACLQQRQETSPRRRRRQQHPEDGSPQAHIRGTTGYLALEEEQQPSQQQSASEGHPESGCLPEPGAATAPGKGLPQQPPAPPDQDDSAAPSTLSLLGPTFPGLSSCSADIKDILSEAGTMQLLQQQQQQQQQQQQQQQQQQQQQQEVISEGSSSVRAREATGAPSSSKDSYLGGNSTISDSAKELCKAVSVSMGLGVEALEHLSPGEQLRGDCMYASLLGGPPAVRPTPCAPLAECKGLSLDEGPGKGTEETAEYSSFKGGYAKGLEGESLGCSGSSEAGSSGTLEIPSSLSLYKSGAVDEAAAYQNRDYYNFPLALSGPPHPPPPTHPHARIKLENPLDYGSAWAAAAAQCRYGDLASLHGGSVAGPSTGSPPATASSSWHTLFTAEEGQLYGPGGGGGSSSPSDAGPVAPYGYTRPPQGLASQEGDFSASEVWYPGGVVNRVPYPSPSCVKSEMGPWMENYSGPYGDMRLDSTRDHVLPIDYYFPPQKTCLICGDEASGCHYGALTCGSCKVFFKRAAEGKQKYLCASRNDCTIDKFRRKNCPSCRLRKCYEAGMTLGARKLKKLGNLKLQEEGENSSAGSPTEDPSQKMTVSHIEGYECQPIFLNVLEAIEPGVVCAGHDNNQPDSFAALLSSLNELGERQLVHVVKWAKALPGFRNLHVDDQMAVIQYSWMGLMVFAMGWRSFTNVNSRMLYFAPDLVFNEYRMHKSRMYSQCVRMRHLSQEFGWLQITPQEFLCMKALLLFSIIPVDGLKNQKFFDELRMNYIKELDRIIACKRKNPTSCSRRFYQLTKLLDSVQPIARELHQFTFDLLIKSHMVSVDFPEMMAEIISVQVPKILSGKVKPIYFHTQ

Compound | inhibition [1] | IC50 (PC-3) [µM] | IC50 [2] [µM] | IC50 (Androgen receptor) [nM]
C[C@]1(O)CC[C@H]2[C@@H]3CCC4=CC(=O)CCC4=C3C=C[C@@]21C | inactive | – | – | –
O=c1cc(N2CCN(c3ccc(F)cc3F)CC2)c2ccc3ccccc3c2o1 | 45.1% | 122 | > 50 | –
O=c1cc(N2CCN(C(c3ccc(F)cc3)c3ccc(F)cc3)CC2)c2ccc3ccccc3c2o1 | 70.3% | > 200 | 1.02 | 850
COc1cccc(N2CCN(c3cc(=O)oc4c3ccc3ccccc34)CC2)c1 | 41.2% | > 200 | 13.3 | –
O=c1cc(N2CCN(c3ccccn3)CC2)c2ccc3ccccc3c2o1 | 54.5% | 150 | 1.92 | 2210
O=c1cc(N2CCN(c3ccccc3C(F)(F)F)CC2)c2ccc3ccccc3c2o1 | 65.4% | 108 | 1.14 | 1040
CCOc1ccccc1N1CCN(c2cc(=O)oc3c2ccc2ccccc23)CC1 | 58.5% | > 200 | 1.43 | 2080
O=c1cc(N2CCN(c3ccccc3)CC2)c2ccc3ccccc3c2o1 | 51.2% | > 200 | 5.05 | 3940
Cc1ccc(N2CCN(c3cc(=O)oc4c3ccc3ccccc34)CC2)cc1 | 53.3% | 136 | 7.7 | 3020
O=c1cc(N2CCN(c3ccccc3Cl)CC2)c2ccc3ccccc3c2o1 | 51.2% | > 200 | 9.69 | 3870
COc1ccc(N2CCN(c3cc(=O)oc4c3ccc3ccccc34)CC2)cc1 | 59.1% | 117 | 5.6 | 1560
O=c1cc(N2CCN(c3ccc(F)cc3)CC2)c2ccc3ccccc3c2o1 | 43.5% | > 200 | 19.3 | –
O=c1cc(N2CCN(c3cccc(Cl)c3)CC2)c2ccc3ccccc3c2o1 | 40.1% | 165 | 2.9 | –
Cc1ccccc1N1CCN(c2cc(=O)oc3c2ccc2ccccc23)CC1 | 53.1% | 109 | 4.43 | 3540
O=c1cc(N2CCN(c3ccccc3F)CC2)c2ccc3ccccc3c2o1 | 52.3% | 124 | 1.89 | 3720
COc1ccccc1N1CCN(c2cc(=O)oc3c2ccc2ccccc23)CC1 | 61.2% | > 200 | 1.7 | 1260
O=c1cc(N2CCN(c3ccc(C(F)(F)F)cc3)CC2)c2ccc3ccccc3c2o1 | 20.7% | > 200 | 12.3 | –
O=c1cc(N2CCN(Cc3ccccc3)CC2)c2ccc3ccccc3c2o1 | 72.1% | > 200 | 0.52 | 550
Cc1cccc(N2CCN(c3cc(=O)oc4c3ccc3ccccc34)CC2)c1 | 45.5% | 54.1 | 32.5 | –
O=c1cc(N2CCN(c3ccc(Cl)cc3)CC2)c2ccc3ccccc3c2o1 | 53.7% | > 200 | 1.3 | 2560
N#Cc1ccc(N2CCN(c3cc(=O)oc4c3ccc3ccccc34)CC2)c(F)c1 | 30.2% | > 200 | 37.8 | –
CC(C)(C)NC(=O)[C@H]1CC[C@H]2[C@@H]3CC[C@H]4NC(=O)C=C[C@]4(C)[C@H]3CC[C@]12C [FINASTERIDE] | – | – | 14.5 | –
Cc1ccc(Cl)cc1N1CCN(c2cc(=O)oc3c2ccc2ccccc23)CC1 | 48.3% | > 200 | 15.3 | –
O=c1cc(N2CCN(c3ccc(Br)cc3)CC2)c2ccc3ccccc3c2o1 | 25.1% | > 200 | > 50 | –
